Like-named read-outs stand apart in the source and are kept apart here.
Target: T1, Human Recombinant Matriptase 2 (Homo sapiens, UniProt Q8IU80)
T1 construct: made in house
T1 sequence (Q8IU80 1-811): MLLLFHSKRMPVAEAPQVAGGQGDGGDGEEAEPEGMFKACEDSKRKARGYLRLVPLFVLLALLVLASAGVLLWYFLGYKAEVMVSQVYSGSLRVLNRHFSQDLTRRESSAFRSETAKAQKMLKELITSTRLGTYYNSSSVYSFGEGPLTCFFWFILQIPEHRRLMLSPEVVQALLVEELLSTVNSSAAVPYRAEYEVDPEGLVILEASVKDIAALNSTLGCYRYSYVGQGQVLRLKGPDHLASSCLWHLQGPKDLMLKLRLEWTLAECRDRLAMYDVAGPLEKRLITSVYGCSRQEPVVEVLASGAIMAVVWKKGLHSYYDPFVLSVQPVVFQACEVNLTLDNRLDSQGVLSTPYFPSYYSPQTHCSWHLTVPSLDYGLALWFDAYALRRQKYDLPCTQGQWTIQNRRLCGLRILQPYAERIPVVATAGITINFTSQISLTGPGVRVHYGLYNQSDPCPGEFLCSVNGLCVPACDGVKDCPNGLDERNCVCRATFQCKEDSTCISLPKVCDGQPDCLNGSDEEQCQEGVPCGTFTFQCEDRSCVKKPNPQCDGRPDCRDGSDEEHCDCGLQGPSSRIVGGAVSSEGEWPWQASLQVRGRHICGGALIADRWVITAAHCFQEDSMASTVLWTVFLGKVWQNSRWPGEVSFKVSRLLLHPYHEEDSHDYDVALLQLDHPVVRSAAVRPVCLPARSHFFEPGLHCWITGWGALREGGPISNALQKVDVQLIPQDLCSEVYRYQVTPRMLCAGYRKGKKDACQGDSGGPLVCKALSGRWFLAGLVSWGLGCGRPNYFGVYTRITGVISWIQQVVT
Experiment: Matriptase 2 inhibition, fluorescence based assay (Method I)
Assay type: biochemical
Experimental: • Method I: Test compounds were evaluated for their potential to inhibit Human Recombinant Matriptase 2 (in-house) using fluorescence based assay. The concentration of Recombinant Matriptase 2 and the substrate used in the assay was: 3.5 nM (In-house Matriptase 2) and 62 μM (Boc-Gln-Ala-Arg-7-amido-4-methyl coumarin hydrobromide −Cat log: I-1550 from Bachem) respectively. The assay buffer used was 50 mM TRIS pH 7.5, 150 mM NaCl, 0.01% Gelatin TCL059 Himedia). The assay was performed using 384 well black flat bottom plate from grenier (Cat log: 781076) at 25° C. The enzyme and compound were preincubated for 30 mins, the plate was read at 60 mins after substrate addition at wavelength Ex: 360/Em: 480 nm. The final assay volume was 20 μl. A stock solution of compounds was initially prepared in DMSO and appropriate dilutions were made and IC50 was determined for all the compounds (final DMSO conc in the assay was 1%). All the measurements were carried out using the Spectramax M5, Molecular devices.
To determine Ki values, dose response curves were generated by plotting percentage inhibition as a function of inhibitor concentration and the data was fitted to sigmoidal non-linear regression equation (variable slope) using Graph Pad prism software V8.

[1] = Table A, Ki of Matriptase-2, read-out: Mat-2 Ki
[2] = Table B, Human Recombinant Matriptase 2, 3.5 nM enzyme, 62 μM substrate, 30 mins preincubation, read-out: Mean Ki
[3] = Table A, Ki of Matriptase-2 given as class symbols, read-out: Mat-2 Ki

Ki [1] [nM]	Ki [3] [nM]	SMILES	further results
≤ 100		Cc1cccc(C)c1CS(=O)(=O)Nc1cc(Cn2c(C(=O)NCC3CCN(C)CC3)cc3ccc(CN)nc32)c2ccccc2c1 [Compound 184, 6-(aminomethyl)-1-({3-[(2,6-dimethylphenyl)-methanesulfonamido]-naphthalen-1-yl}meth-yl)-N-[(1-methylpiper-idin-4-yl)methyl]-1H-pyrrolo[2,3-b]pyridine-2-carboxamide]	
	100 to 500	Cc1oc(=O)oc1COC(=O)NCc1ccc2cc(C(=O)O)n(Cc3cc(NS(=O)(=O)Cc4ccccc4)cc4ccccc34)c2n1 [Compound 359, 6-(((((5-methyl-2-oxo-1,3-dioxol-4-yl)methoxy)carbonyl)amino)methyl)-1-((3-((phenylmethyl)sulfonamido)naphthalen-1-yl)methyl)-1H-pyrrolo[2,3-b]pyridine-2-carboxylic acid]	
100 to 500		NCc1ccc2cc(C(=O)OCCC3CCOCC3)n(Cc3cc(NS(=O)(=O)Cc4ccsc4)cc4ccccc34)c2n1 [Compound 179, 2-(oxan-4-yl)ethyl 6-(aminomethyl)-1-({3-[(thiophen-3-yl)methane-sulfonamido]naphthalen-1-yl}methyl)-1H-pyr-rolo[2,3-b]pyridine-2-carboxylate]	
≤ 100		Cc1cccc(C)c1CS(=O)(=O)Nc1cc(Cn2c(C(=O)OC[C@H]3CNCCO3)cc3ccc(CN)nc32)c2ccccc2c1 [Compound 182, [(2R)-morpholin-2-yl]-methyl 6-(aminometh-yl)-1-({3-[(2,6-dimeth-ylphenyl)methanesulfon-amido]naphthalen-1-yl}-methyl)-1H-pyrrolo[2,3-b]pyridine-2-carboxylate]	
	100 to 500	NCc1ccc2cc(C(=O)O)n(Cc3cc(NS(=O)(=O)C4CCOCC4)cc4ccccc34)c2n1 [Compound 240, 6-(aminomethyl)-1-{[3-(oxane-4-sulfonamido)-naphthalen-1-yl]methyl}-1H-pyrrolo[2,3-b]pyr-idine-2-carboxylic acid]	
	100 to 500	CN1CCC(Cc2nnc(-c3cc4ccc(CN)nc4n3Cc3cc(NS(=O)(=O)Cc4ccccc4)cc4ccccc34)o2)CC1 [Compound 346, N-(4-{[6-(aminomethyl)-2-{5-[(1-methylpiperidin-4-yl)methyl]-1,3,4-oxa-diazol-2-yl}-1H-pyrrolo-[2,3-b]pyridin-1-yl]meth-yl}naphthalen-2-yl)-1-phenylmethanesulfon-amide]	
	≤ 100	CN1CCCC(COC(=O)c2cc3ccc(CN)cc3n2Cc2cc(NS(=O)(=O)Cc3ccccc3)cc3ccccc23)C1 (racemic) [Compound 382, (1-methylpiperidin-3-yl)-methyl 6-(aminomethyl)-1-{[3-(phenylmethane-sulfonamido)naphthalen-1-yl]methyl}-1H-indole-2-carboxylate]	
	100 to 500	NCc1ccc2cc(C(=O)O)n(Cc3cc(NS(=O)(=O)C[C@H]4CNCCO4)cc4ccccc34)c2c1 (racemic) [Compound 391, 6-(aminomethyl)-1-({3-[(morpholin-2-l)methane-sulfonamido]naphthalen-1-yl}methyl)-1H-indole-2-carboxylic acid]	
100 to 500		COc1ccccc1CS(=O)(=O)Nc1cc(Cn2c(C(=O)O)cc3ccc(CN)nc32)c2ccccc2c1 [Compound 180, 6-(aminomethyl)-1-({3-[(2-methoxyphenyl)-methanesulfonamido]-naphthalen-1-yl}meth-yl)-1H-pyrrolo[2,3-b]-pyridine-2-carboxylic acid]	
	≤ 100	CN1CCC(COC(=O)c2cc3ccc(CN)cc3n2Cc2cc(NS(=O)(=O)Cc3cccs3)cc3ccccc23)CC1 [Compound 379, (1-methylpiperidin-4-yl)-methyl 6-(aminomethyl)-1-({3-[(thiophen-2-yl)-methanesulfonamido]-naphthalen-1-yl}meth-yl)-1H-indole-2-carbox-ylate]	
	500 to 3000	NCc1ccc2cc(C(=O)O)n(Cc3cc(NS(=O)(=O)[C@@H]4CCOC4)cc4ccccc34)c2n1 [Compound 276]	

More lines, now with the values behind:

SMILES	Ki [1] [nM]	Ki [3] [nM]	further results
CN1CCC(COC(=O)c2cc3ccc(CN)nc3n2Cc2cc(NS(=O)(=O)Cc3ccsc3)cc3ccccc23)CC1=O (stereo not shown) [Compound 2.32]			Ki [2]: ≤ 100 nM
NCc1ccc2cc(C(=O)OCC3CCNCC3)n(Cc3cc(NS(=O)(=O)Cc4ccccc4)cc4ccccc34)c2n1 [Compound 9, (piperidin-4-yl)methyl 6-(aminomethyl)-1-{[3-(phenylmethanesulfon-amido)naphthalen-1-yl]-methyl}-1H-pyrrolo[2,3-b]pyridine-2-carboxylate]	≤ 100		
CCC1(COC(=O)c2cc3ccc(CN)nc3n2Cc2cc(NS(=O)(=O)Cc3ccccc3)cc3ccccc23)CCN(C)CC1 [Compound 31, (4-ethyl-1-methylpiper-idin-4-yl)methyl 6-(aminomethyl)-1-{[3-(phenylmethanesulfon-amido)naphthalen-1-yl]-methyl}-1H-pyrrolo[2,3-b]pyridine-2-carboxylate]	≤ 100		
NCc1ccc2cc(C(=O)OCCn3cncn3)n(Cc3cc(NS(=O)(=O)Cc4ccccc4)cc4ccccc34)c2n1 [Compound 97]	100 to 500		
CN1CCC(CN(C)C(=O)c2cc3ccc(CN)nc3n2Cc2cc(NS(=O)(=O)Cc3ccccc3)cc3ccccc23)CC1 [Compound 26, 6-(aminomethyl)-N-methyl-N-[(1-methyl-piperidin-4-yl)methyl]-1-{[3-(phenylmethane-sulfonamido)naphthalen-1-yl]methyl}-1H-pyr-rolo[2,3-b]pyridine-2-carboxamide]	≤ 100		
NCc1ccc2cc(C(=O)OCCCN3CCOCC3)n(Cc3cc(NS(=O)(=O)Cc4ccccc4)cc4ccccc34)c2n1 [Compound 133, 3-(morpholin-4-yl)prop-yl 6-(aminomethyl)-1-{[3-(phenylmethanesul-fonamido)naphthalen-1-ylmethyl}-1H-pyrrolo-[2,3-b]pyridine-2-car-boxylate]	100 to 500		
CB1C=Cc2c(Cn3c(C(=O)OCC4CCN(C)CC4)cc4ccc(CN)nc43)cc(Br)cc2N1 [Compound 2.31]			Ki [2]: 500 to 3000 nM
CN(C)C(=O)OCCOC(=O)c1cc2ccc(CN)nc2n1Cc1cc(NS(=O)(=O)Cc2ccccc2)cc2ccccc12 [Compound 80, 2-[(dimethylcarbamoyl)-oxy]ethyl 6-(aminometh-yl)-1-{[3-phenylmethane-sulfonamido)naphthalen-1-yl]methyl}-1H-pyr-rolo[2,3-b]pyridine-2-carboxylate]	≤ 100		
CN1CCO[C@@H](COC(=O)c2cc3ccc(CN)nc3n2Cc2cc(NS(=O)(=O)Cc3ccccc3)cc3ccccc23)C1 (racemic) [Compound 64, (4-methylmorpholin-2-yl)methyl 6-(aminometh-yl)-1-{[3-(phenylmeth-anesulfonamido)naph-thalen-1-yl]methyl}-1H-pyrrolo[2,3-b]pyridine-2-carboxylate]	≤ 100		
CC(C)n1nccc1COC(=O)c1cc2ccc(CN)nc2n1Cc1cc(NS(=O)(=O)Cc2ccccc2)cc2ccccc12 [Compound 111, [1-(propan-2-yl)-1H-pyrazol-5-yl]methyl 6-(aminomethyl)-1-{[3-(phenylmethanesulfon-amido)naphthalen-1-yl]-methyl}-1H-pyrrolo-[2,3-b]pyridine-2-car-boxylate]	100 to 500		
NCc1ccc2cc(C(=O)OCc3ccccc3)n(Cc3cc(NS(=O)(=O)Cc4ccccc4)cc4ccccc34)c2n1 [Compound 123, benzyl 6-(aminomethyl)-1-{[3-(phenylmethane-sulfonamido)naphthalen-1-yl]methyl}-1H-pyr-rolo[2,3-b]pyridine-2-carboxylate]	500 to 3000		
